± gives the standard deviation of the averaged measurements.
Key:
Test in all cases: relative viability vs DMSO control (72 h) (fraction); higher = more viable cells
G401 = system: G401
Procedure, shortened: (§1)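 ATPLite readings, expressed as percent growth and averaged over up to triplicate wells, provided relative viability. Before reading, sarcoma cell lines seeded in 384-well plates to reach 80–90% confluence received 2.5 µl of serially diluted compound after 24 h, from source plates of 10 mM to 0.0002 mM. Plates were held 72 h at 37 °C, 5% CO2, with 0.1% DMSO as vehicle and a 5 µM positive control. The data were rescaled to 1 for full and 0 for none.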

A204 = system: A204
Procedure, shortened: as §1

SW1353 = system: SW1353
Procedure, shortened: as §1

SK-ES-1 = system: SK-ES-1
Procedure, shortened: as §1

HT1080 = system: HT1080
Procedure, shortened: as §1

SW684 = system: SW684
Procedure, shortened: as §1

SW982 = system: SW982
Procedure, shortened: as §1

SW872 = system: SW872
Procedure, shortened: as §1

RD-ES = system: RD-ES
Procedure, shortened: as §1

KHOS-240S = system: KHOS-240S
Procedure, shortened: as §1

KHOS-NP = system: KHOS-NP
Procedure, shortened: as §1

SYO-1 = system: SYO-1
Procedure, shortened: as §1

Cn1cnc2c(F)c(Nc3ccc(Br)cc3Cl)c(C(=O)NOCCO)cc21 [Selumetinib]
Settings	relative viability
A204, 0.00017 µM	1.03 ± 0.058
A204, 0.00051 µM	1.02 ± 0.068
A204, 0.00152 µM	1.01 ± 0.027
A204, 0.00457 µM	1.055 ± 0.01
A204, 0.01372 µM	0.988 ± 0.029
A204, 0.04115 µM	0.977 ± 0.0054
A204, 0.1235 µM	0.947 ± 0.065
A204, 0.3704 µM	0.973 ± 0.013
A204, 1.111 µM	0.939 ± 0.032
A204, 3.333 µM	0.9367 ± 0.0092
A204, 10 µM	0.811 ± 0.031
G401, 0.00017 µM	0.994 ± 0.049
G401, 0.00051 µM	0.962 ± 0.051
G401, 0.00152 µM	0.959 ± 0.033
G401, 0.00457 µM	0.935 ± 0.087
G401, 0.01372 µM	0.949 ± 0.029
G401, 0.04115 µM	0.926 ± 0.029
G401, 0.1235 µM	0.882 ± 0.018
G401, 0.3704 µM	0.838 ± 0.032
G401, 1.111 µM	0.78 ± 0.037
G401, 3.333 µM	0.719 ± 0.045
G401, 10 µM	0.627 ± 0.054
HT1080, 0.00017 µM	0.96 ± 0.018
HT1080, 0.00051 µM	0.97 ± 0.067
HT1080, 0.00152 µM	0.974 ± 0.023
HT1080, 0.00457 µM	0.9799 ± 0.0076
HT1080, 0.01372 µM	0.927 ± 0.053
HT1080, 0.04115 µM	0.855 ± 0.043
HT1080, 0.1235 µM	0.805 ± 0.014
HT1080, 0.3704 µM	0.6793 ± 0.0063
HT1080, 1.111 µM	0.602 ± 0.017
HT1080, 3.333 µM	0.491 ± 0.025
HT1080, 10 µM	0.462 ± 0.013
KHOS-240S, 0.00017 µM	1.03 ± 0.026
KHOS-240S, 0.00051 µM	1.03 ± 0.035
KHOS-240S, 0.00152 µM	1.01 ± 0.017
KHOS-240S, 0.00457 µM	0.999 ± 0.03
KHOS-240S, 0.01372 µM	0.959 ± 0.06
KHOS-240S, 0.04115 µM	0.949 ± 0.037
KHOS-240S, 0.1235 µM	0.91 ± 0.035
KHOS-240S, 0.3704 µM	0.8785 ± 0.0036
KHOS-240S, 1.111 µM	0.864 ± 0.017
KHOS-240S, 3.333 µM	0.782 ± 0.026
KHOS-240S, 10 µM	0.723 ± 0.029
KHOS-NP, 0.00017 µM	1.06 ± 0.019
KHOS-NP, 0.00051 µM	1.03 ± 0.047
KHOS-NP, 0.00152 µM	1.04 ± 0.038
KHOS-NP, 0.00457 µM	1.04 ± 0.034
KHOS-NP, 0.01372 µM	1.01 ± 0.058
KHOS-NP, 0.04115 µM	0.965 ± 0.03
KHOS-NP, 0.1235 µM	0.823 ± 0.052
KHOS-NP, 0.3704 µM	0.727 ± 0.042
KHOS-NP, 1.111 µM	0.526 ± 0.021
KHOS-NP, 3.333 µM	0.351 ± 0.018
KHOS-NP, 10 µM	0.277 ± 0.0072
RD-ES, 0.00017 µM	0.958 ± 0.043
RD-ES, 0.00051 µM	0.942 ± 0.032
RD-ES, 0.00152 µM	0.95 ± 0.012
RD-ES, 0.00457 µM	0.985 ± 0.029
RD-ES, 0.01372 µM	0.973 ± 0.03
RD-ES, 0.04115 µM	0.965 ± 0.029
RD-ES, 0.1235 µM	0.927 ± 0.038
RD-ES, 0.3704 µM	0.942 ± 0.029
RD-ES, 1.111 µM	0.935 ± 0.055
RD-ES, 3.333 µM	0.933 ± 0.041
RD-ES, 10 µM	0.855 ± 0.057
SK-ES-1, 0.00017 µM	0.944 ± 0.098
SK-ES-1, 0.00051 µM	0.961 ± 0.07
SK-ES-1, 0.00152 µM	0.951 ± 0.064
SK-ES-1, 0.00457 µM	0.956 ± 0.042
SK-ES-1, 0.01372 µM	0.951 ± 0.074
SK-ES-1, 0.04115 µM	0.929 ± 0.044
SK-ES-1, 0.1235 µM	0.932 ± 0.05
SK-ES-1, 0.3704 µM	0.925 ± 0.052
SK-ES-1, 1.111 µM	0.925 ± 0.064
SK-ES-1, 3.333 µM	0.925 ± 0.078
SK-ES-1, 10 µM	0.87 ± 0.041
SW684, 0.00017 µM	1.04 ± 0.037
SW684, 0.00051 µM	1.09 ± 0.043
SW684, 0.00152 µM	1.06 ± 0.047
SW684, 0.00457 µM	1.03 ± 0.043
SW684, 0.01372 µM	1.03 ± 0.04
SW684, 0.04115 µM	0.973 ± 0.067
SW684, 0.1235 µM	0.969 ± 0.07
SW684, 0.3704 µM	0.98 ± 0.047
SW684, 1.111 µM	0.941 ± 0.029
SW684, 3.333 µM	0.84 ± 0.024
SW684, 10 µM	0.692 ± 0.048
SW872, 0.00017 µM	0.957 ± 0.066
SW872, 0.00051 µM	0.985 ± 0.053
SW872, 0.00152 µM	0.951 ± 0.048
SW872, 0.00457 µM	0.938 ± 0.051
SW872, 0.01372 µM	0.894 ± 0.02
SW872, 0.04115 µM	0.758 ± 0.01
SW872, 0.1235 µM	0.654 ± 0.03
SW872, 0.3704 µM	0.58 ± 0.046
SW872, 1.111 µM	0.58 ± 0.01
SW872, 3.333 µM	0.562 ± 0.028
SW872, 10 µM	0.545 ± 0.019
SW982, 0.00017 µM	1.01 ± 0.045
SW982, 0.00051 µM	1.01 ± 0.021
SW982, 0.00152 µM	1.02 ± 0.042
SW982, 0.00457 µM	1.01 ± 0.032
SW982, 0.01372 µM	0.99 ± 0.018
SW982, 0.04115 µM	0.956 ± 0.034
SW982, 0.1235 µM	0.9336 ± 0.0056
SW982, 0.3704 µM	0.902 ± 0.025
SW982, 1.111 µM	0.876 ± 0.0069
SW982, 3.333 µM	0.835 ± 0.013
SW982, 10 µM	0.804 ± 0.041
SW1353, 0.00017 µM	0.917 ± 0.016
SW1353, 0.00051 µM	0.894 ± 0.019
SW1353, 0.00152 µM	0.918 ± 0.024
SW1353, 0.00457 µM	0.892 ± 0.02
SW1353, 0.01372 µM	0.815 ± 0.058
SW1353, 0.04115 µM	0.782 ± 0.012
SW1353, 0.1235 µM	0.75 ± 0.019
SW1353, 0.3704 µM	0.709 ± 0.036
SW1353, 1.111 µM	0.724 ± 0.043
SW1353, 3.333 µM	0.674 ± 0.029
SW1353, 10 µM	0.652 ± 0.008
SYO-1, 0.00017 µM	0.937 ± 0.012
SYO-1, 0.00051 µM	0.931 ± 0.011
SYO-1, 0.00152 µM	0.9523 ± 0.009
SYO-1, 0.00457 µM	0.9263 ± 0.0047
SYO-1, 0.01372 µM	0.8956 ± 0.0039
SYO-1, 0.04115 µM	0.869 ± 0.015
SYO-1, 0.1235 µM	0.829 ± 0.019
SYO-1, 0.3704 µM	0.805 ± 0.018
SYO-1, 1.111 µM	0.778 ± 0.015
SYO-1, 3.333 µM	0.733 ± 0.032
SYO-1, 10 µM	0.695 ± 0.042

Source: the supplement of paper PMC10883282
